Data on five compounds can be found in US12527774B2, “Estrogen-related receptor alpha modulators” (LEAD PHARMA HOLDING B.V., priority 2019, dated 2026).

Molecules are shown by their SMILES.

The target of one experiment is full length ERRα (Homo sapiens (Human), UniProt P11474). Briefly: Full Length ERRα Reporter Gene Assay. The class given is cell-based. The following applies: SK-BR-3 cells, ERRα-RE luciferase reporter, overnight incubation; read-out: mean pIC50 (converted). The gist of the method: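 SK-BR-3 cells transiently co-transfected with full-length human ERRα expression construct and ERRα-RE luciferase reporter, plated next day at 25,000 cells/well in phenol-red-free medium with 2% charcoal-stripped FBS. Compound (12-point 4-fold series) incubated overnight; firefly luminescence read, activity as log IC50.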
Sequence of full length ERRα (P11474 whole entry): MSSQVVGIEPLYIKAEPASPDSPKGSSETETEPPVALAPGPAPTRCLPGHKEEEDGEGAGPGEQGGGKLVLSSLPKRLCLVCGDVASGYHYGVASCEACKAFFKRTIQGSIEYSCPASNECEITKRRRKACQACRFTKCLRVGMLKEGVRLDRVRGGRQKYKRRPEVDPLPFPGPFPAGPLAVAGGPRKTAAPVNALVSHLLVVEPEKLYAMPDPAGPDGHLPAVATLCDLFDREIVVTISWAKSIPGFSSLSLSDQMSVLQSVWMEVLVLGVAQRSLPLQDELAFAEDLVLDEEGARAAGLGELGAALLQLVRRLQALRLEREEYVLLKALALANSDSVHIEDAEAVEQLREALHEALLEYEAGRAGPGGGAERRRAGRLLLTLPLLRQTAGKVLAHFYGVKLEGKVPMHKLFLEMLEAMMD
In general terms: In a reporter assay the amount or activity of a reporter protein is the signal.

A further experiment has as its system B16F10 melanoma. Briefly: B16F10 Melanoma Syngeneic Mouse Model. The class given is in vivo. As to conditions: 30 mpk p.o., q.d., C57BL/6 mice; for Tumor Growth Inhibition (%): Day 13. On the procedure: B16F10 Melanoma Syngeneic Mouse Model
Examples inhibitors 100, 191, 192, 194 and 196 were tested for their ability to inhibit tumor growth in a B16F10 melanoma syngeneic mouse model.
Cell line and tumor model: B16F10 melanoma cell line derived allograft model in C57BL/6 mice.
Mouse B16F10 melanoma cells were sourced from American Type Culture Collection (ATCC), USA. Cells were grown in DMEM (Invitrogen, Catalogue No. 31600-034) supplemented with 10% FBS (Invitrogen, Catalogue No. 10438-026), and 1% penicillin streptomycin (Thermo Fisher Scientific, Catalogue No. 15140-122). To establish allografts, the cells were harvested by trypsinization when they reach around 70 to 80% confluence and 0.1 million B16F10 cells were suspended in 50 μl of serum free medium and mixed at 1:1 ratio with matrigel before implanting subcutaneously into the dorsal right flank of mice using a 1 mL BD syringe attached to a 24-gauge needle.
B16F10 tumor grafts were measured after 5 days of cell inoculation once they became palpable. When the average tumor volume reached around 58 mm^3, animals were dosed after randomization into different treatment groups keeping tumor volume and number of animals in such a way so that the average tumor volume of each group remained same across the groups. Dosing was performed on a per kilogram weight basis, by mouth (per os, p.o.) once a day (quaque die, q.d).
Tumor dimensions—length (I) and breadth (b)—were measured by caliper on the day of animal randomization based on tumor volume (Day 1) and thrice weekly thereafter until study termination. Tumor volumes were calculated using the formula b^2*I*0.52 where l=length, b=breadth (Dusan Djokovic et al., BMC Cancer, 2010, 10:641). Tumor growth inhibition was calculated after normalizing the tumor volume on a given day to that on Day 1.
Test items administration was started when tumor volume reached an average of 58 mm^3.
Administration of test items was carried out until Day 14 and measurement of tumor volume was carried out until Day 13 for computing percent tumor growth inhibition (TGI).

For experiment [1], the target named is ERRα ligand binding domain (ERRα-LBD) (Homo sapiens (Human), UniProt P11474). The experiment can be described thus: ERRα AlphaScreen Assay. The class given is biochemical. As to conditions: disruption of binding of ERRα-LBD protein to biotin-PGC1α-3 co-activator peptide. The gist of the method: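 Disruption of co-activator binding read by AlphaScreen: compounds in triplicate, 1% DMSO, Tris pH 7.5 buffer, room temperature. Bacterially expressed 6His-SUMO-ERRα-LBD at 0.81 nM with beads for 1 h, then 15 nM biotinylated PGC1α peptide for 2 h. IC50 from four-parameter fits, averaged as pIC50.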
Sequence of ERRα ligand binding domain (ERRα-LBD) (P11474 193-421): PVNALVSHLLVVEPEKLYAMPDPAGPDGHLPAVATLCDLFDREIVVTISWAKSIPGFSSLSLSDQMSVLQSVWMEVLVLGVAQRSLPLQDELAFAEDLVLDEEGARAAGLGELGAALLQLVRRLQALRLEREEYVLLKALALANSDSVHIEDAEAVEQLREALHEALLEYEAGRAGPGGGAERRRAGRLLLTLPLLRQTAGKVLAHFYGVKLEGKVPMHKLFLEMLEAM
(In general: Alpha assays give light when donor and acceptor beads are brought close together.)

As to `COc1cc(C2CC(=O)Nc3n[nH]cc32)ccc1COc1ccc(C(F)F)cc1C(F)(F)F` (single isomer, unassigned; (-)) [Example 196, (−)-4-(4-{[4-(difluoromethyl)-2-(trifluoromethyl)phenoxy]methyl}-3-methoxyphenyl)-2H,4H,5H,6H,7H-pyrazolo[3,4-b]pyridin-6-one], the IC50 on full length ERRα is ≤ 316 nM. For the same compound, in the experiment with B16F10 melanoma, the “Tumor Volume (mm^3) Day 13” value was found to be 755 ± 135 mm^3 and the “Tumor Growth Inhibition (%)” value was found to be 60%.

Turning to `COc1cc(C2CC(=O)Nc3n[nH]cc32)ccc1COc1ccc(Cl)cc1C(F)(F)F` (single isomer, unassigned; (-)) [Example 194, (−)-4-(4-{[4-chloro-2-(trifluoromethyl)phenoxy]methyl}-3-methoxyphenyl)-2H,4H,5H,6H,7H-pyrazolo[3,4-b]pyridin-6-one], the “mean pIC50” value in experiment [1] is given as ≥ 8. Besides, on full length ERRα, the IC50 is ≤ 316 nM. In the experiment with B16F10 melanoma, the “Tumor Volume (mm^3) Day 13” value amounted to 870 ± 152 mm^3 and the “Tumor Growth Inhibition (%)” value was found to be 53%.

Consider `COc1cc(C2CC(=O)Nc3n[nH]cc32)ccc1OCc1cccc(OC)c1C(F)(F)F` (stereo not shown) [Example 36, 4-(3-methoxy-4-{[3-methoxy-2-(trifluoromethyl)phenyl]methoxy}phenyl)-2H,4H,5H,6H,7H-pyrazolo[3,4-b]pyridin-6-one], for which the “mean pIC50” value in experiment [1] is given as ≥ 8. Also, the IC50 on full length ERRα is ≤ 316 nM.

Take `COc1ccc(COc2ccc(-c3cc(=O)[nH]c4n[nH]cc34)cc2OC)c(C(F)(F)F)c1` [Example 170, 4-(3-methoxy-4-{[4-methoxy-2-(trifluoromethyl)phenyl]methoxy}phenyl)-2H,6H, 7H-pyrazolo[3,4-b]pyridin-6-one]: in experiment [1], the “mean pIC50” value was ≥ 8. Also, at full length ERRα, the IC50 is ≤ 316 nM.

As for `COc1cc(C2CC(=O)Nc3n[nH]cc32)ccc1OCc1ccc(Cl)cc1C(F)(F)F` (stereo not shown) [Example 15, 4-(4-{[4-chloro-2-(trifluoromethyl)phenyl]methoxy}-3-methoxyphenyl)-2H,4H,5H,6H, 7H-pyrazolo[3,4-b]pyridin-6-one], the “mean pIC50” value in experiment [1] is ≥ 8. Besides, the IC50 at full length ERRα was ≤ 316 nM.
